Drawing on ChEMBL document CHEMBL3525963, “Tissue distribution and elimination of [14C]apixaban in rats” (Drug Metab Dispos, 2011), this text covers Compound recovery for one molecule.

Data set [1] is described as follows: Drug level in feces of Sprague-Dawley rat treated with [14C]apixaban at 30 mg/kg, po assessed as compound level by HPLC method. Conditions: in vivo.
Data set [2] is described as follows: Drug level in urine of Sprague-Dawley rat treated with [14C]apixaban at 30 mg/kg, po assessed as compound level by HPLC method. The following applies: in vivo.

For `NC(=O)c1nn(-c2ccc(O)cc2)c2c1CCN(c1ccc(N3CCCC[14C]3=O)cc1)C2=O`, the Compound recovery in data set [1] was 13%; in data set [2], 2%.
